Converted amounts (≈) assume the structure as drawn. The source made the active and inactive calls. The rule behind the calls is not given here.
How the values were obtained:
Bacillus subtilis [1] = assay: Antibacterial activity against penicillin-susceptible Bacillus subtilis ATCC 9372 assessed as inhibition of bacterial growth measured after 20 hrs by two-fold microdilution assay; type: functional
Bacillus pumilus [2] = assay: Antibacterial activity against penicillin-susceptible Bacillus pumilus CMCC63202 assessed as inhibition of bacterial growth measured after 20 hrs by two-fold microdilution assay; type: functional
Streptococcus pyogenes [3] = assay: Antibacterial activity against erythromycin-susceptible Streptococcus pyogenes assessed as inhibition of bacterial growth measured after 20 hrs by two-fold microdilution assay; type: functional
Escherichia coli = assay: Antibacterial activity against penicillin-susceptible Escherichia coli ATCC 25922 assessed as inhibition of bacterial growth measured after 20 hrs by two-fold microdilution assay; type: functional
Pseudomonas aeruginosa = assay: Antibacterial activity against penicillin-susceptible Pseudomonas aeruginosa ATCC 27853 assessed as inhibition of bacterial growth measured after 20 hrs by two-fold microdilution assay; type: functional
Streptococcus pyogenes [4] = assay: Antibacterial activity against erythromycin-resistant Streptococcus pyogenes assessed as inhibition of bacterial growth measured after 20 hrs by two-fold microdilution assay; type: functional
[5] = test system: Staphylococcus epidermidis; assay: Antibacterial activity against penicillin-resistant Staphylococcus epidermidis assessed as inhibition of bacterial growth measured after 20 hrs by two-fold microdilution assay; type: functional
Enterococcus faecium [6] = assay: Antibacterial activity against Vancomycin-susceptible Enterococcus faecium ATCC 19434 assessed as inhibition of bacterial growth measured after 20 hrs by two-fold microdilution assay; type: functional
Enterococcus faecium [7] = assay: Antibacterial activity against Vancomycin-resistant Enterococcus faecium ATCC 51559 assessed as inhibition of bacterial growth measured after 20 hrs by two-fold microdilution assay; type: functional
Bacillus subtilis [8] = assay: Bactericidal activity against penicillin-susceptible Bacillus subtilis ATCC 9372 assessed as inhibition of bacterial growth measured after 20 hrs by two-fold microdilution assay; type: functional
Bacillus pumilus [9] = assay: Bactericidal activity against penicillin-susceptible Bacillus pumilus CMCC63202 assessed as inhibition of bacterial growth measured after 20 hrs by two-fold microdilution assay; type: functional
Staphylococcus aureus [10] = assay: Bactericidal activity against erythromycin-susceptible Staphylococcus aureus ATCC 25923 assessed as inhibition of bacterial growth measured after 20 hrs by two-fold microdilution assay; type: functional
Staphylococcus aureus [11] = assay: Bactericidal activity against methicillin-resistant Staphylococcus aureus ATCC43300 assessed as inhibition of bacterial growth measured after 20 hrs by two-fold microdilution assay; type: functional
Staphylococcus aureus [12] = assay: Bactericidal activity against penicillin-resistant Staphylococcus aureus ATCC 31007 assessed as inhibition of bacterial growth measured after 20 hrs by two-fold microdilution assay; type: functional
Enterococcus faecalis [13] = assay: Bactericidal activity against Vancomycin-susceptible Enterococcus faecalis ATCC 29212 assessed as inhibition of bacterial growth measured after 20 hrs by two-fold microdilution assay; type: functional
Enterococcus faecium [14] = assay: Bactericidal activity against Vancomycin-susceptible Enterococcus faecium ATCC 19434 assessed as inhibition of bacterial growth measured after 20 hrs by two-fold microdilution assay; type: functional
Enterococcus faecium [15] = assay: Bactericidal activity against Vancomycin-resistant Enterococcus faecium ATCC 51559 assessed as inhibition of bacterial growth measured after 20 hrs by two-fold microdilution assay; type: functional
Enterococcus faecalis [16] = assay: Bactericidal activity against Vancomycin-resistant Enterococcus faecalis ATCC 51299 assessed as inhibition of bacterial growth measured after 20 hrs by two-fold microdilution assay; type: functional
Staphylococcus aureus [17] = assay: Antibacterial activity against Staphylococcus aureus ATCC 25923 assessed as decrease of bacterial growth at 32 ug/ml measured up to 24 hrs by Time kill assay; type: functional, organism-based; conditions: dose 32.0 µg/ml, time hrs <=24
[18] = target: T1, Cell division protein FtsZ (Bacillus subtilis (strain 168)) (UniProt P17865); assay: Inhibition of Bacillus subtilis FtsZ assessed as promotion of FtsZ polymerization at 10 ug/ml measured after […] by fluorescence spectrometer based light scattering assay; conditions: dose 10.0 µg/ml
T1 sequence (whole entry): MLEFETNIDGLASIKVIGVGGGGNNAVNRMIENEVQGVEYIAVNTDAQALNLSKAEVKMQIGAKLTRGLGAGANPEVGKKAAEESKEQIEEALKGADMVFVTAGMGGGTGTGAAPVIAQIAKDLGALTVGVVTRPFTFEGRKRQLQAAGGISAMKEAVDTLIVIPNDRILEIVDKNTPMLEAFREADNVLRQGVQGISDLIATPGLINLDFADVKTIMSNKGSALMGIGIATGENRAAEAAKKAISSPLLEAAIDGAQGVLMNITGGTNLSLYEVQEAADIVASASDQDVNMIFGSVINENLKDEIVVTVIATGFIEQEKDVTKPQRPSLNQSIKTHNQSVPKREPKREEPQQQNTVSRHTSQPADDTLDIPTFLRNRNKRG

Staphylococcus aureus [19] = assay: Antibacterial activity against erythromycin-susceptible Staphylococcus aureus ATCC 25923 assessed as inhibition of bacterial growth measured after 20 hrs by two-fold microdilution assay; type: functional
Staphylococcus aureus [20] = assay: Antibacterial activity against methicillin-resistant Staphylococcus aureus ATCC43300 assessed as inhibition of bacterial growth measured after 20 hrs by two-fold microdilution assay; type: functional
Staphylococcus aureus [21] = assay: Antibacterial activity against penicillin-resistant Staphylococcus aureus ATCC 31007 assessed as inhibition of bacterial growth measured after 20 hrs by two-fold microdilution assay; type: functional
Staphylococcus aureus [22] = assay: Antibacterial activity against clinical isolate Staphylococcus aureus C1 assessed as inhibition of bacterial growth measured after 20 hrs by two-fold microdilution assay; type: functional
Enterococcus faecalis [23] = assay: Antibacterial activity against Vancomycin-susceptible Enterococcus faecalis ATCC 29212 assessed as inhibition of bacterial growth measured after 20 hrs by two-fold microdilution assay; type: functional
Enterococcus faecalis [24] = assay: Antibacterial activity against Vancomycin-resistant Enterococcus faecalis ATCC 51299 assessed as inhibition of bacterial growth measured after 20 hrs by two-fold microdilution assay; type: functional
Bacillus subtilis [25] = assay: Ratio of MBC to MIC against penicillin-susceptible Bacillus subtilis ATCC 9372; type: functional
Bacillus pumilus [26] = assay: Ratio of MBC to MIC against penicillin-susceptible Bacillus pumilus CMCC63202; type: functional
Staphylococcus aureus [27] = assay: Ratio of MBC to MIC against erythromycin-susceptible Staphylococcus aureus ATCC 25923; type: functional
Staphylococcus aureus [28] = assay: Ratio of MBC to MIC against penicillin-resistant Staphylococcus aureus ATCC 31007; type: functional
Enterococcus faecalis [29] = assay: Ratio of MBC to MIC against Vancomycin-susceptible Enterococcus faecalis ATCC 29212; type: functional
Enterococcus faecium [30] = assay: Ratio of MBC to MIC against Vancomycin-susceptible Enterococcus faecium ATCC 19434; type: functional
Enterococcus faecalis [31] = assay: Ratio of MBC to MIC against Vancomycin-resistant Enterococcus faecalis ATCC 51299; type: functional
Staphylococcus aureus [32] = assay: Ratio of MBC to MIC against methicilline-resistant Staphylococcus aureus ATCC43300; type: functional
Enterococcus faecium [33] = assay: Ratio of MBC to MIC against Vancomycin-resistant Enterococcus faecium ATCC 51559; type: functional

Molecule `CC(=O)NC[C@H]1CN(c2ccc(N3CCOCC3)c(F)c2)C(=O)O1` [LINEZOLID] has an MIC (Bacillus subtilis [1]) of 0.5 µg/mL (≈ 1.48 µM), an MIC (Bacillus pumilus [2]) of 2 µg/mL (≈ 5.93 µM) and an MIC (Streptococcus pyogenes [3]) of 1 µg/mL (≈ 2.96 µM). For the same molecule, the MIC (Escherichia coli) was over 64 µg/mL, the MIC (Pseudomonas aeruginosa) was over 64 µg/mL and the MIC (Streptococcus pyogenes [4]) was 1 µg/mL (≈ 2.96 µM). The MIC [5] was 4 µg/mL (≈ 11.9 µM), the MIC (Enterococcus faecium [6]) was 4 µg/mL (≈ 11.9 µM) and the MIC (Enterococcus faecium [7]) was 4 µg/mL (≈ 11.9 µM). For the same molecule, the MBC (Bacillus subtilis [8]) was 64 µg/mL (≈ 190 µM), the MBC (Bacillus pumilus [9]) was 16 µg/mL (≈ 47.4 µM) and the MBC (Staphylococcus aureus [10]) was 128 µg/mL (≈ 379 µM). For the same molecule, the MBC (Staphylococcus aureus [11]) was 8 µg/mL (≈ 23.7 µM), the MBC (Staphylococcus aureus [12]) was 16 µg/mL (≈ 47.4 µM) and the MBC (Enterococcus faecalis [13]) was 64 µg/mL (≈ 190 µM). It also gave an MBC (Enterococcus faecium [14]) of over 64 µg/mL, an MBC (Enterococcus faecium [15]) of 64 µg/mL (≈ 190 µM) and an MBC (Enterococcus faecalis [16]) of 64 µg/mL (≈ 190 µM). For the same molecule, the Activity (Staphylococcus aureus [17]) was “Active” and the inhibition [18] was “inactive”.
`Cc1ccc2c[n+](C)c3ccc(-c4ccc5ccn(Cc6ccc(C(F)(F)F)cc6)c5c4)cc3c2c1.[Cl-]` was tested, and the MIC (Bacillus subtilis [1]) was 8 µg/mL, the MIC (Bacillus pumilus [2]) was 2 µg/mL and the MIC (Staphylococcus aureus [19]) was 2 µg/mL. The MIC (Streptococcus pyogenes [3]) was 8 µg/mL, the MIC (Escherichia coli) was over 64 µg/mL and the MIC (Pseudomonas aeruginosa) was over 64 µg/mL. For the same molecule, the MIC (Staphylococcus aureus [20]) was 4 µg/mL, the MIC (Staphylococcus aureus [21]) was 8 µg/mL and the MIC (Staphylococcus aureus [22]) was 2 µg/mL. For the same molecule, the MIC (Streptococcus pyogenes [4]) was 8 µg/mL, the MIC [5] was 2 µg/mL and the MIC (Enterococcus faecalis [23]) was 4 µg/mL. For the same molecule, the MIC (Enterococcus faecium [6]) was 2 µg/mL, the MIC (Enterococcus faecium [7]) was 4 µg/mL and the MIC (Enterococcus faecalis [24]) was 4 µg/mL. The MBC (Bacillus subtilis [8]) was over 8 µg/mL, the MBC (Bacillus pumilus [9]) was 16 µg/mL and the MBC (Staphylococcus aureus [10]) was 4 µg/mL. The MBC (Staphylococcus aureus [11]) was 8 µg/mL, the MBC (Staphylococcus aureus [12]) was 16 µg/mL and the Ratio (Bacillus subtilis [25]) was 1. It also gave a Ratio (Bacillus pumilus [26]) of 8, a Ratio (Staphylococcus aureus [27]) of 2 and a Ratio (Staphylococcus aureus [28]) of 4. It also gave an MBC (Enterococcus faecalis [13]) of 16 µg/mL, an MBC (Enterococcus faecium [14]) of 16 µg/mL and an MBC (Enterococcus faecium [15]) of 32 µg/mL. It also gave an MBC (Enterococcus faecalis [16]) of 32 µg/mL, a Ratio (Enterococcus faecalis [29]) of 4 and a Ratio (Enterococcus faecium [30]) of 8. The Ratio (Enterococcus faecalis [31]) was 8.
In the case of `Cc1ccc2c[n+](C)c3ccc(-c4ccc5ccn(Cc6ccc(OC(F)(F)F)cc6)c5c4)cc3c2c1.[Cl-]`, the MIC (Bacillus subtilis [1]) is reported as 4 µg/mL, the MIC (Bacillus pumilus [2]) is reported as 4 µg/mL and the MIC (Staphylococcus aureus [19]) is reported as 2 µg/mL. For the same molecule, the MIC (Streptococcus pyogenes [3]) was 8 µg/mL, the MIC (Escherichia coli) was over 64 µg/mL and the MIC (Pseudomonas aeruginosa) was over 64 µg/mL. The MIC (Staphylococcus aureus [20]) was 4 µg/mL, the MIC (Staphylococcus aureus [21]) was 4 µg/mL and the MIC (Staphylococcus aureus [22]) was 4 µg/mL. It also gave an MIC (Streptococcus pyogenes [4]) of 8 µg/mL, an MIC [5] of 2 µg/mL and an MIC (Enterococcus faecalis [23]) of 4 µg/mL. It also gave an MIC (Enterococcus faecium [6]) of 4 µg/mL, an MIC (Enterococcus faecium [7]) of 4 µg/mL and an MIC (Enterococcus faecalis [24]) of 4 µg/mL. The MBC (Bacillus subtilis [8]) was 4 µg/mL, the MBC (Bacillus pumilus [9]) was 32 µg/mL and the MBC (Staphylococcus aureus [10]) was 4 µg/mL. It also gave an MBC (Staphylococcus aureus [11]) of 4 µg/mL, an MBC (Staphylococcus aureus [12]) of 4 µg/mL and a Ratio (Bacillus subtilis [25]) of 1. The Ratio (Bacillus pumilus [26]) was 8, the Ratio (Staphylococcus aureus [27]) was 2 and the Ratio (Staphylococcus aureus [32]) was 1. The Ratio (Staphylococcus aureus [28]) was 1, the MBC (Enterococcus faecalis [13]) was 16 µg/mL and the MBC (Enterococcus faecium [14]) was 16 µg/mL. The MBC (Enterococcus faecium [15]) was 32 µg/mL, the MBC (Enterococcus faecalis [16]) was 16 µg/mL and the Ratio (Enterococcus faecalis [29]) was 4. For the same molecule, the Ratio (Enterococcus faecium [30]) was 4 and the Ratio (Enterococcus faecium [33]) was 8.
